Source: patent publication US20260325487A1 (BS BIOTECHNA SPOLKA AKCYJNA, priority 2023, published 2026)
Like-named read-outs stand apart in the source and are kept apart here.

Legend:
Format in all cases: cell-based
[1] = test system: NCI-H1975; experiment: SRB anti-proliferative assay, NCI-H1975, with CalcuSyn combination index (Example 1); conditions: Homo sapiens, NCI-H1975, 72 h, read-out: Zah. (inhibition of proliferation)
Protocol: (§1) Cells were thawed from ampoules stored in liquid nitrogen and cultured in petri dishes in appropriate culture medium according to Table 2, in a humidified 5% CO2 atmosphere at 37° C. Cells were passaged twice weekly using EDTA-Trypsin solution, pH 8. Counted cells with a viability of at least 90% as assessed with Trypan-Blue solution were used for anti-proliferative assays.
(§2) Twenty-four hours before the addition of the test compounds/combinations, cells were seeded into 384-well plates at 50 μL/well and a density of 10^3 cells/well, in the appropriate culture medium.
(§3) Solutions of the compounds were diluted in the test medium-RPMI-1640 and Opti-MEM in a 1:1 ratio, and the medium was supplemented with 2 mM glutamine and 5% fetal bovine serum FBS. After 72 h, colourimetric assessment of cell growth was performed by SRB. […] Unbound dye was removed by washing the plates (4×) in 1% (v/v) acetic acid, and protein-bound dye was extracted with 10 mM unbuffered Tris base and the optical density (A=540 nm) was determined in a BioTek Synergy H4 Hybrid computer microplate reader (BioTek Instruments USA). The entire washing/staining procedure was performed using a BioTek EL406 washing station (BioTek Instruments USA). The raw absorbance results were analysed in Microsoft Excel software using the formula:
(§4) [formula] • Where: • % Zahlnh-inhibition of proliferation • Am—absorbance of wells without cells (medium) • Ak—absorbance of control wells (cells treated with pure culture medium) • Ap—absorbance of wells treated with compounds
(§5) Each compound at the indicated concentrations was tested in triplicate in one experiment. Each experiment was repeated three times. Data analysis was supplemented with synergy assessment using CalcuSyn software. […] A CI value below 0.8 indicates synergism, 0.8-1.2 an additive effect, above 1.2 an antagonism.

[2] = test system: SKMES-1; experiment: SRB anti-proliferative assay, SKMES-1, molecular combination and nanoparticles, with combination index (Example III); conditions: Homo sapiens, SK-MES-1, read-out: Inhibition of cell proliferation (Zah.)
Protocol: (§6) Cells were thawed from ampoules stored in liquid nitrogen and cultured in petri dishes in the appropriate culture medium according to Table 16, in a humidified 5% CO2 atmosphere at 37° C. Cells were passaged twice weekly using EDTA-Trypsin solution, pH 8, as a separating agent. Counted cells with a viability of at least 90% as assessed with Trypan-Blue solution were used for anti-proliferation assays.
(§7) Twenty-four hours before the addition of the test compounds/combinations, cells were seeded into 384-well plates at 50 μL/well and a density of 10^3 cells/well, in the appropriate culture medium. […] Solutions of the compounds were diluted in the test medium—RPMI-1640 and Opti-MEM in a 1:1 ratio, and the medium was supplemented with 2 mM glutamine and 5% fetal bovine serum FBS.
as §3, with “After” for “Solutions of the compounds were diluted in the test medium-RPMI-1640 and Opti-MEM in a 1:1 ratio, and the medium was supplemented with 2 mM glutamine and 5% fetal bovine serum FBS. After”
as §4, §5

[3] = test system: LUDLU-1; experiment: SRB anti-proliferative assay, LUDLU-1, molecular combination and nanoparticles, with combination index (Example III); conditions: Homo sapiens, LUDLU-1, read-out: Zah. (inhibition of cell proliferation)
Protocol: as §6, §7
as §3, with “After” for “Solutions of the compounds were diluted in the test medium-RPMI-1640 and Opti-MEM in a 1:1 ratio, and the medium was supplemented with 2 mM glutamine and 5% fetal bovine serum FBS. After”
as §4, §5

[4] = test system: 8MGBA; experiment: SRB anti-proliferative assay, 8MGBA, molecular combination and nanoparticles, with combination index (Example III); conditions: Homo sapiens, 8-MG-BA, 72 h
Protocol: as §6, §7
as §3, with “After” for “Solutions of the compounds were diluted in the test medium-RPMI-1640 and Opti-MEM in a 1:1 ratio, and the medium was supplemented with 2 mM glutamine and 5% fetal bovine serum FBS. After”
as §4, §5

[5] = test system: SW1990; experiment: SRB anti-proliferative assay, SW1990, with CalcuSyn combination index (Example 1); conditions: Homo sapiens, SW1990, 72 h, read-out: Zah. (inhibition of proliferation)
Protocol: as §1, §2, §3, §4, §5

[6] = test system: BxPC3; experiment: SRB anti-proliferative assay, BxPC3, with CalcuSyn combination index (Example 1); conditions: Homo sapiens, BXPC-3, 72 h, read-out: Zah. (inhibition of proliferation)
Protocol: as §1, §2, §3, §4, §5

[7] = test system: Hs683; experiment: SRB anti-proliferative assay, Hs683, molecular combination and nanoparticles, with combination index (Example III); conditions: Homo sapiens, Hs 683, 72 h, read-out: Zah. (inhibition of proliferation)
Protocol: as §6, §7
as §3, with “After” for “Solutions of the compounds were diluted in the test medium-RPMI-1640 and Opti-MEM in a 1:1 ratio, and the medium was supplemented with 2 mM glutamine and 5% fetal bovine serum FBS. After”
as §4, §5

C=CCNC1=C2C[C@@H](C)C[C@H](OC)[C@H](O)[C@@H](C)/C=C(\C)[C@H](OC(N)=O)[C@@H](OC)/C=C\C=C(/C)C(=O)NC(=CC1=O)C2=O [17AAG, 17-AAG (tanespimycin)]
inhibition at 0.0031 µM [1]: 10%
inhibition at 0.01 µM [1]: 25.2%
inhibition at 0.0314 µM [1]: 66.7%
inhibition at 0.1 µM [1]: 84.1%
inhibition at 0.3155 µM [1]: 87.6%
inhibition at 1 µM [1]: 88.5%
inhibition at 3.1546 µM [1]: 88.4%
inhibition at 10 µM [1]: 86.6%
inhibition at 0.0003163 µM [2]: 2.2%
inhibition at 0.001 µM [2]: 46.7%
inhibition at 0.0032 µM [2]: 86.7%
inhibition at 0.01 µM [2]: 90.6%
inhibition at 0.0316 µM [2]: 85.1%
inhibition at 0.1 µM [2]: 87.9%
inhibition at 0.3163 µM [2]: 89.3%
inhibition at 1 µM [2]: 89.1%
inhibition at 0.0003163 µM [3]: 3.9%
inhibition at 0.001 µM [3]: 29.3%
inhibition at 0.0032 µM [3]: 61.9%
inhibition at 0.01 µM [3]: 75.1%
inhibition at 0.0316 µM [3]: 60.2%
inhibition at 0.1 µM [3]: 65.7%
inhibition at 0.3163 µM [3]: 76.9%
inhibition at 1 µM [3]: 80.2%
inhibition at 0.0003163 µM ([4]; read-out: Zah. (inhibition of proliferation), 17AAG 0.3163 nM, Tables 18a/19a): -3.9%
inhibition at 0.0003163 µM ([4]; read-out: Zah. (inhibition of proliferation), 17AAG 0.3163 nM, Tables 21a/22a): 6%
inhibition at 0.001 µM ([4]; read-out: Zah. (inhibition of proliferation), 17AAG 1 nM, Tables 18a/19a): 9.8%
inhibition at 0.001 µM ([4]; read-out: Zah. (inhibition of proliferation), 17AAG 1 nM, Tables 21a/22a): 15.7%
inhibition at 0.0032 µM ([4]; read-out: Zah. (inhibition of proliferation), 17AAG 3.2 nM, Tables 18a/19a): 64.9%
inhibition at 0.0032 µM ([4]; read-out: Zah. (inhibition of proliferation), 17AAG 3.2 nM, Tables 21a/22a): 4.7%
inhibition at 0.01 µM ([4]; read-out: Zah. (inhibition of proliferation), 17AAG 10 nM, Tables 18a/19a): 89.5%
inhibition at 0.01 µM ([4]; read-out: Zah. (inhibition of proliferation), 17AAG 10 nM, Tables 21a/22a): 7.8%
inhibition at 0.0316 µM ([4]; read-out: Zah. (inhibition of proliferation), 17AAG 31.6 nM, Tables 18a/19a): 88.5%
inhibition at 0.0316 µM ([4]; read-out: Zah. (inhibition of proliferation), 17AAG 31.6 nM, Tables 21a/22a): 20.1%
inhibition at 0.1 µM ([4]; read-out: Zah. (inhibition of proliferation), 17AAG 100 nM, Tables 18a/19a): 84.3%
inhibition at 0.1 µM ([4]; read-out: Zah. (inhibition of proliferation), 17AAG 100 nM, Tables 21a/22a): 37.4%
inhibition at 0.3163 µM ([4]; read-out: Zah. (inhibition of proliferation), 17AAG 316.3 nM, Tables 18a/19a): 86%
inhibition at 0.3163 µM ([4]; read-out: Zah. (inhibition of proliferation), 17AAG 316.3 nM, Tables 21a/22a): 64.6%
inhibition at 1 µM ([4]; read-out: Zah. (inhibition of proliferation), 17AAG 1000 nM, Tables 18a/19a): 91.9%
inhibition at 1 µM ([4]; read-out: Zah. (inhibition of proliferation), 17AAG 1000 nM, Tables 21a/22a): 81.1%
inhibition at 0.0003163 µM ([4]; read-out: Zah. (inhibition of proliferation), 72 h, 17AAG 0.3163 nM): -3.9%
inhibition at 0.001 µM ([4]; read-out: Zah. (inhibition of proliferation), 72 h, 17AAG 1 nM): 9.8%
inhibition at 0.0032 µM ([4]; read-out: Zah. (inhibition of proliferation), 72 h, 17AAG 3.2 nM): 64.9%
inhibition at 0.01 µM ([4]; read-out: Zah. (inhibition of proliferation), 72 h, 17AAG 10 nM): 89.5%
inhibition at 0.0316 µM ([4]; read-out: Zah. (inhibition of proliferation), 72 h, 17AAG 31.6 nM): 88.5%
inhibition at 0.1 µM ([4]; read-out: Zah. (inhibition of proliferation), 72 h, 17AAG 100 nM): 84.3%
inhibition at 0.3163 µM ([4]; read-out: Zah. (inhibition of proliferation), 72 h, 17AAG 316.3 nM): 86%
inhibition at 1 µM ([4]; read-out: Zah. (inhibition of proliferation), 72 h, 17AAG 1000 nM): 91.9%
inhibition at 0.0031 µM [5]: -0.2%
inhibition at 0.01 µM [5]: 5.7%
inhibition at 0.0314 µM [5]: 40.7%
inhibition at 0.1 µM [5]: 81.7%
inhibition at 0.3155 µM [5]: 90.6%
inhibition at 1 µM [5]: 92.9%
inhibition at 3.1546 µM [5]: 93.5%
inhibition at 10 µM [5]: 92.6%
inhibition at 0.0031 µM [6]: 1.7%
inhibition at 0.01 µM [6]: 2.7%
inhibition at 0.0314 µM [6]: 24.4%
inhibition at 0.1 µM [6]: 54.7%
inhibition at 0.3155 µM [6]: 75.9%
inhibition at 1 µM [6]: 89.4%
inhibition at 3.1546 µM [6]: 95.3%
inhibition at 10 µM [6]: 95.2%
inhibition at 0.0003163 µM [7]: 8.3%
inhibition at 0.001 µM [7]: 50.3%
inhibition at 0.0032 µM [7]: 63%
inhibition at 0.01 µM [7]: 93.9%
inhibition at 0.0316 µM [7]: 79.2%
inhibition at 0.1 µM [7]: 82%
inhibition at 0.3163 µM [7]: 91%
inhibition at 1 µM [7]: 94.3%
